The data set in a line: activity coefficient (dimensionless); of the first substance listed, at infinite dilution; xn = mol fraction of the nth substance listed. The following applies: Liquid, Chromatography, x1 = 0.

± gives the expanded uncertainty stated by the source.

This is an account of results in the NIST ThermoML archive (doi:10.1016/j.fluid.2014.11.020).

Take `CCc1ccccc1` [ethylbenzene] + Cn1cc[n+](COCCCOC[n+]2ccn(C)c2)c1.O=S(=O)([N-]S(=O)(=O)C(F)(F)F)C(F)(F)F.O=S(=O)([N-]S(=O)(=O)C(F)(F)F)C(F)(F)F: the activity coefficient runs as follows: (323.15 K) 2.41 ± 0.16; (333.15 K) 2.44 ± 0.17; (343.15 K) 2.38 ± 0.16.
Regarding `Cc1ccccc1` [toluene] + CCCCCCCCn1cc[n+](COCCCOC[n+]2ccn(CCCCCCCC)c2C)c1C.O=S(=O)([N-]S(=O)(=O)C(F)(F)F)C(F)(F)F.O=S(=O)([N-]S(=O)(=O)C(F)(F)F)C(F)(F)F, the activity coefficient reads like this: (323.15 K) 0.54 ± 0.04; (333.15 K) 0.53 ± 0.04; (343.15 K) 0.54 ± 0.04.
In the case of `CC1CCCCC1` [methylcyclohexane] + Cn1cc[n+](COCCCOC[n+]2ccn(C)c2)c1.O=S(=O)([N-]S(=O)(=O)C(F)(F)F)C(F)(F)F.O=S(=O)([N-]S(=O)(=O)C(F)(F)F)C(F)(F)F, the activity coefficient is, setting by setting: (323.15 K) 21 ± 1.4; (333.15 K) 18.3 ± 1.2.
With `CCC(=O)CC` [pentan-3-one] + CCCCCCCCn1cc[n+](COCCCOC[n+]2ccn(CCCCCCCC)c2C)c1C.N#C[N-]C#N.N#C[N-]C#N, the activity coefficient came to 0.75 ± 0.05 (323.15 K), 0.76 ± 0.05 (333.15 K) and 0.78 ± 0.05 (343.15 K).
With `Cc1ccccc1C` [1,2-dimethylbenzene] + CCCOC[n+]1ccn(C)c1.O=S(=O)([N-]S(=O)(=O)C(F)(F)F)C(F)(F)F, the activity coefficient by setting is: (323.15 K) 2.3 ± 0.16; (333.15 K) 2.28 ± 0.16; (343.15 K) 2.29 ± 0.16.
Take `ClCCl` [dichloromethane] + CCCOC[n+]1ccn(Cc2ccccc2)c1.N#C[N-]C#N: the activity coefficient reads like this: (323.15 K) 0.58 ± 0.04; (333.15 K) 0.63 ± 0.04; (343.15 K) 0.68 ± 0.05.
The matching figures for `CC(C)CO` [2-methyl-1-propanol] + N#C[N-]C#N.N#C[N-]C#N.c1ccc(Cn2cc[n+](COCCCOC[n+]3ccn(Cc4ccccc4)c3)c2)cc1: 1.79 ± 0.12, 1.67 ± 0.11 and 1.61 ± 0.11.
The corresponding values for `c1ccncc1` [pyridine] + CCCCCCCCn1cc[n+](COCCCOC[n+]2ccn(CCCCCCCC)c2C)c1C.O=S(=O)([N-]S(=O)(=O)C(F)(F)F)C(F)(F)F.O=S(=O)([N-]S(=O)(=O)C(F)(F)F)C(F)(F)F are 0.13 ± 0.03, 0.14 ± 0.03 and 0.15 ± 0.03.
The matching figures for `CCc1ccccc1` [ethylbenzene] + CCCCCCCCn1cc[n+](COCCCOC[n+]2ccn(CCCCCCCC)c2C)c1C.O=S(=O)([N-]S(=O)(=O)C(F)(F)F)C(F)(F)F.O=S(=O)([N-]S(=O)(=O)C(F)(F)F)C(F)(F)F: 0.75 ± 0.05, 0.73 ± 0.05 and 0.74 ± 0.05.
Turning to `CCCCCCCCCCC` [undecane] + CCCOC[n+]1ccn(Cc2ccccc2)c1.F[B-](F)(F)F, the activity coefficient (323.15 K) amounted to 352 ± 24, the activity coefficient (333.15 K) was found to be 301 ± 21 and the activity coefficient (343.15 K) was 286 ± 20.
On to `CCCCCCCC` [octane] + CCCCCCCCn1cc[n+](COCCCOC[n+]2ccn(CCCCCCCC)c2C)c1C.O=S(=O)([N-]S(=O)(=O)C(F)(F)F)C(F)(F)F.O=S(=O)([N-]S(=O)(=O)C(F)(F)F)C(F)(F)F, for which the activity coefficient is, setting by setting: (323.15 K) 5.97 ± 0.41; (333.15 K) 5.45 ± 0.37; (343.15 K) 5.08 ± 0.35.
As for `CCOCC` [diethyl ether] + CCCCCCCCn1cc[n+](COCCC)c1C.O=S(=O)([N-]S(=O)(=O)C(F)(F)F)C(F)(F)F, the activity coefficient came to 1.13 ± 0.07 (323.15 K) and 1.11 ± 0.07 (333.15 K).
Consider `CCCCCCCCCCCCC` [tridecane] + CCCOC[n+]1ccn(C)c1.N#C[N-]C#N, for which the activity coefficient turned out to be 1150 ± 79 (323.15 K), 1030 ± 71 (333.15 K) and 916 ± 63 (343.15 K).
For the compound `CCN(CC)CC` [triethylamine] + CCCCCCCCn1cc[n+](COCCC)c1C.O=S(=O)([N-]S(=O)(=O)C(F)(F)F)C(F)(F)F, the activity coefficient (323.15 K) stood at 1.2 ± 0.08.
On to `CC(C)O` [propan-2-ol] + Cn1cc[n+](COCCCOC[n+]2ccn(C)c2)c1.O=S(=O)([N-]S(=O)(=O)C(F)(F)F)C(F)(F)F.O=S(=O)([N-]S(=O)(=O)C(F)(F)F)C(F)(F)F, for which the activity coefficient was 1.31 ± 0.09 (323.15 K), 1.22 ± 0.08 (333.15 K) and 1.05 ± 0.07 (343.15 K).
Take `CCCCCCCC` [octane] + Cn1cc[n+](COCCCOC[n+]2ccn(C)c2)c1.O=S(=O)([N-]S(=O)(=O)C(F)(F)F)C(F)(F)F.O=S(=O)([N-]S(=O)(=O)C(F)(F)F)C(F)(F)F: the activity coefficient is 60.4 ± 4.1 (323.15 K), 60.6 ± 4.2 (333.15 K) and 38.4 ± 2.6 (343.15 K).
For the compound `CCCCCCCCCCCCCC` [tetradecane] + CCCOC[n+]1ccn(C)c1.F[B-](F)(F)F, the activity coefficient was 2700 ± 190 (323.15 K), 2500 ± 170 (333.15 K) and 2300 ± 160 (343.15 K).
The matching figures for `Cc1ccc(C)cc1` [1,4-dimethylbenzene] + CCCCCCCCn1cc[n+](COCCC)c1C.N#C[N-]C#N: 1.51 ± 0.1, 1.52 ± 0.1 and 1.56 ± 0.1.
For the compound `Cc1ccccc1C` [1,2-dimethylbenzene] + CCCOC[n+]1ccn(C)c1.N#C[N-]C#N, the activity coefficient (323.15 K) turned out to be 5.05 ± 0.34, the activity coefficient (333.15 K) is 5.13 ± 0.35 and the activity coefficient (343.15 K) turned out to be 5.22 ± 0.36.
Turning to `CCCCO` [butan-1-ol] + CN(C)c1cc[n+](COCCCOC[n+]2ccc(N(C)C)cc2)cc1.O=S(=O)([N-]S(=O)(=O)C(F)(F)F)C(F)(F)F.O=S(=O)([N-]S(=O)(=O)C(F)(F)F)C(F)(F)F, the activity coefficient was determined as 1.95 ± 0.13 (323.15 K), 1.64 ± 0.11 (333.15 K) and 1.58 ± 0.1 (343.15 K).
The corresponding values for `Cc1ccccc1C` [1,2-dimethylbenzene] + CCCOC[n+]1ccn(C)c1.F[B-](F)(F)F are 9.13 ± 0.62, 8.97 ± 0.61 and 8.93 ± 0.61.
For `CCCCCCCC` [octane] + CCCOC[n+]1ccc(N(C)C)cc1.O=S(=O)([N-]S(=O)(=O)C(F)(F)F)C(F)(F)F, the activity coefficient is, setting by setting: (323.15 K) 22.2 ± 1.5; (333.15 K) 20.5 ± 1.4; (343.15 K) 17.7 ± 1.2.
As to `ClCCl` [dichloromethane] + CN(C)c1cc[n+](COCCCOC[n+]2ccc(N(C)C)cc2)cc1.O=S(=O)([N-]S(=O)(=O)C(F)(F)F)C(F)(F)F.O=S(=O)([N-]S(=O)(=O)C(F)(F)F)C(F)(F)F, the activity coefficient runs as follows: (323.15 K) 0.52 ± 0.04; (333.15 K) 0.54 ± 0.04; (343.15 K) 0.56 ± 0.04.
The matching figures for `CCC(C)=O` [butanone] + CCCOC[n+]1ccn(C)c1.N#C[N-]C#N: 1.27 ± 0.08, 1.19 ± 0.08 and 1.12 ± 0.07.
The matching figures for `c1ccsc1` [thiophene] + CCCCCCCCn1cc[n+](COCCC)c1C.O=S(=O)([N-]S(=O)(=O)C(F)(F)F)C(F)(F)F: 0.57 ± 0.04, 0.52 ± 0.04 and 0.56 ± 0.04.
Take `ClC(Cl)(Cl)Cl` [tetrachloromethane] + CCCOC[n+]1ccn(C)c1.F[B-](F)(F)F: the activity coefficient runs as follows: (323.15 K) 8.91 ± 0.61; (333.15 K) 8.58 ± 0.59; (343.15 K) 8.19 ± 0.56.
Turning to `CCCCO` [butan-1-ol] + CCCOC[n+]1ccn(Cc2ccccc2)c1.N#C[N-]C#N, the activity coefficient is, setting by setting: (323.15 K) 0.93 ± 0.06; (333.15 K) 0.88 ± 0.06; (343.15 K) 0.82 ± 0.05.
Consider `Cc1ccccc1` [toluene] + CN(C)c1cc[n+](COCCCOC[n+]2ccc(N(C)C)cc2)cc1.O=S(=O)([N-]S(=O)(=O)C(F)(F)F)C(F)(F)F.O=S(=O)([N-]S(=O)(=O)C(F)(F)F)C(F)(F)F, for which the activity coefficient (323.15 K) stood at 0.92 ± 0.06, the activity coefficient (333.15 K) amounted to 0.94 ± 0.06 and the activity coefficient (343.15 K) worked out at 0.96 ± 0.06.
Consider `CCCCCCCCCC` [decane] + CN(C)c1cc[n+](COCCCOC[n+]2ccc(N(C)C)cc2)cc1.O=S(=O)([N-]S(=O)(=O)C(F)(F)F)C(F)(F)F.O=S(=O)([N-]S(=O)(=O)C(F)(F)F)C(F)(F)F, for which the activity coefficient (323.15 K) amounted to 79.5 ± 5.5, the activity coefficient (333.15 K) amounted to 71 ± 4.9 and the activity coefficient (343.15 K) turned out to be 63 ± 4.3.
Take `CCC(C)CC` [3-methylpentane] + CCCOC[n+]1ccn(C)c1.O=S(=O)([N-]S(=O)(=O)C(F)(F)F)C(F)(F)F: the activity coefficient is, setting by setting: (323.15 K) 14.4 ± 0.98; (333.15 K) 10.8 ± 0.74.
In the case of `CC#N` [acetonitrile] + CN(C)c1cc[n+](COCCCOC[n+]2ccc(N(C)C)cc2)cc1.O=S(=O)([N-]S(=O)(=O)C(F)(F)F)C(F)(F)F.O=S(=O)([N-]S(=O)(=O)C(F)(F)F)C(F)(F)F, the activity coefficient stood at 0.37 ± 0.03 (323.15 K), 0.37 ± 0.03 (333.15 K) and 0.37 ± 0.03 (343.15 K).
`CC(C)CC(C)(C)C` [2,2,4-trimethylpentane] + CN(C)c1cc[n+](COCCCOC[n+]2ccc(N(C)C)cc2)cc1.O=S(=O)([N-]S(=O)(=O)C(F)(F)F)C(F)(F)F.O=S(=O)([N-]S(=O)(=O)C(F)(F)F)C(F)(F)F: the activity coefficient came to 31.7 ± 2.2 (323.15 K), 25.2 ± 1.7 (333.15 K) and 25.4 ± 1.7 (343.15 K).
The corresponding values for `CCCO` [propan-1-ol] + CCCCCCCCn1cc[n+](COCCC)c1C.N#C[N-]C#N are 0.4 ± 0.03, 0.4 ± 0.03 and 0.39 ± 0.03.
With `CCCCCC` [hexane] + CCCCCCCCn1cc[n+](COCCC)c1C.N#C[N-]C#N, the activity coefficient (323.15 K) was determined as 7.08 ± 0.48, the activity coefficient (333.15 K) amounted to 6.92 ± 0.47 and the activity coefficient (343.15 K) amounted to 6.8 ± 0.46.
For the compound `C1CCCCC1` [cyclohexane] + Cn1cc[n+](COCCCOC[n+]2ccn(C)c2)c1.O=S(=O)([N-]S(=O)(=O)C(F)(F)F)C(F)(F)F.O=S(=O)([N-]S(=O)(=O)C(F)(F)F)C(F)(F)F, the activity coefficient (323.15 K) was found to be 17.6 ± 1.2 and the activity coefficient (333.15 K) came out at 12.4 ± 0.85.
For `C1COCCO1` [1,4-dioxane] + CCCOC[n+]1ccc(N(C)C)cc1.O=S(=O)([N-]S(=O)(=O)C(F)(F)F)C(F)(F)F, the activity coefficient was 0.56 ± 0.04 (323.15 K), 0.59 ± 0.04 (333.15 K) and 0.59 ± 0.04 (343.15 K).
